Our source for the IC50 values is ChEMBL document CHEMBL4266058, “2-Aminoadipic Acid-C(O)-Glutamate Based Prostate-Specific Membrane Antigen Ligands for Potential Use as Theranostics” (ACS Med Chem Lett, 2018).

As usually defined, the IC50 is the concentration that gives 50% inhibition.

Each structure is given as a SMILES string.

Glutamate carboxypeptidase 2, sequence (Q04609 whole entry): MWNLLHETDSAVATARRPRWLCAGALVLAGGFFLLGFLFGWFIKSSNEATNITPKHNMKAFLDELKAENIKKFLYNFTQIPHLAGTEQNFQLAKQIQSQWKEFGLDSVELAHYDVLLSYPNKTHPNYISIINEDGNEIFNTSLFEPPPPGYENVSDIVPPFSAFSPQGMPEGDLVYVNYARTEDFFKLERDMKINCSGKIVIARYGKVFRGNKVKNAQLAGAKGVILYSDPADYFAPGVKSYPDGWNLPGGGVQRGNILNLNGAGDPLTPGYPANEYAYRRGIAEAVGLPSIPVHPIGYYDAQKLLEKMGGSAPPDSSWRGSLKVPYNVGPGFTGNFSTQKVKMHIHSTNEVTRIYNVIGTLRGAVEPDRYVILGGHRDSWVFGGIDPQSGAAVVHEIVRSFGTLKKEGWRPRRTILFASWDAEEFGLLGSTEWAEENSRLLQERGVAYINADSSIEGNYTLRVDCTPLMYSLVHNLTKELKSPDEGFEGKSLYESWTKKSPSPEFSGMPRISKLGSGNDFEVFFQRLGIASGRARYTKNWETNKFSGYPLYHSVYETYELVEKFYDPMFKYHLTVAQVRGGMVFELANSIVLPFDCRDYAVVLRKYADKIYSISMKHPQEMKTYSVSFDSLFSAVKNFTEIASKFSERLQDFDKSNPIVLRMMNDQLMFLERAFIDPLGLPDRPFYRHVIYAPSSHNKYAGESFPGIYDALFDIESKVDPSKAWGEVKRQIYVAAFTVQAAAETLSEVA

This test concerns the target Glutamate carboxypeptidase 2 (Homo sapiens, UniProt Q04609). The test is described as follows: Inhibition of recombinant human PSMA using [3H]NAAG as substrate preincubated for 15 mins followed by substrate addition measured after 20 mins by liquid scintillation method.
On to `O=C(O)CC[C@H](NC(=O)N[C@@H](CCCC(=O)Nc1ccc(F)cc1)C(=O)O)C(=O)O`, for which the IC50 came out at 0.35 nM.

On to `O=C(O)CC[C@H](NC(=O)N[C@@H](CCCC(=O)N1CCN(c2ccc(F)cc2)CC1)C(=O)O)C(=O)O`, for which the IC50 stood at 1.31 nM.

Turning to `O=C(O)CC[C@H](NC(=O)N[C@@H](CCCC(=O)NCCNC(=O)c1ccc(F)cc1)C(=O)O)C(=O)O`, the IC50 was found to be 0.94 nM.

With `O=C(O)CC[C@H](NC(=O)N[C@@H](CCCC(=O)NCc1ccc(F)cc1)C(=O)O)C(=O)O`, the IC50 was found to be 2.32 nM.

As to `O=C(O)CC[C@H](NC(=O)N[C@@H](CCCC(=O)NCCNC(=O)c1ccc(F)nc1)C(=O)O)C(=O)O`, the IC50 was determined as 1.11 nM.

Turning to `O=C(O)CC[C@H](NC(=O)N[C@@H](CCCC(=O)NC(c1ccc(F)cc1)c1ccc(F)cc1)C(=O)O)C(=O)O`, the IC50 stood at 1.19 nM.

Take `O=C(O)CC[C@H](NC(=O)N[C@@H](CCCC(=O)Nc1ccc(F)nc1)C(=O)O)C(=O)O`: the IC50 worked out at 0.99 nM.

Regarding `O=C(O)CC[C@H](NC(=O)N[C@@H](CCCC(=O)N(CCNC(=O)c1ccc(F)nc1)c1ccccc1)C(=O)O)C(=O)O`, the IC50 was 0.13 nM.

With `O=C(O)CC[C@H](NC(=O)N[C@@H](CCCC(=O)Nc1cccc(F)c1)C(=O)O)C(=O)O`, the IC50 came out at 0.28 nM.

Take `C[C@H](NC(=O)CCC[C@H](NC(=O)N[C@@H](CCC(=O)O)C(=O)O)C(=O)O)c1ccc(F)cc1`: the IC50 came to 5.24 nM.

Regarding `C[C@@H](NC(=O)CCC[C@H](NC(=O)N[C@@H](CCC(=O)O)C(=O)O)C(=O)O)c1ccc(F)cc1`, the IC50 worked out at 5.44 nM.

For `O=C(O)CC[C@H](NC(=O)N[C@@H](CCCC(=O)NCc1cccc(F)c1)C(=O)O)C(=O)O`, the IC50 was 2.91 nM.

With `CN(C(=O)CCC[C@H](NC(=O)N[C@@H](CCC(=O)O)C(=O)O)C(=O)O)c1ccc(F)nc1`, the IC50 is 0.075 nM.

Regarding `CN(C(=O)CCC[C@H](NC(=O)N[C@@H](CCC(=O)O)C(=O)O)C(=O)O)c1ccc(F)cc1`, the IC50 stood at 0.2 nM.

On to `O=C(O)CC[C@H](NC(=O)N[C@@H](CCCC(=O)NCc1ccccc1F)C(=O)O)C(=O)O`, for which the half-inhibitory concentration (IC50) came out at 2.11 nM.

Regarding `CN(Cc1cccc(F)c1)C(=O)CCC[C@H](NC(=O)N[C@@H](CCC(=O)O)C(=O)O)C(=O)O`, the IC50 turned out to be 0.46 nM.

`CN(Cc1ccc(F)cc1)C(=O)CCC[C@H](NC(=O)N[C@@H](CCC(=O)O)C(=O)O)C(=O)O`: the concentration for half-maximal inhibition (IC50) is 0.64 nM.

Regarding `C[C@H](NC(=O)CCC[C@H](NC(=O)N[C@@H](CCC(=O)O)C(=O)O)C(=O)O)c1ccc(F)nc1`, the IC50 is 4.46 nM.

With `O=C(O)CC[C@H](NC(=O)N[C@@H](CCCC(=O)N(CCNC(=O)c1ccc(F)cc1)c1ccccc1)C(=O)O)C(=O)O`, the half-inhibitory concentration (IC50) came to 0.15 nM.
